# In publication PMC8555766, “Paradoxical Potentiation of Acid-Sensing Ion Channel 3 (ASIC3) by Amiloride via Multiple Mechanisms and Sites Within the Channel” (Frontiers in Physiology, 2021):
# Changes are numbered by the printed parent chain.
# What was measured:
# ASIC3 G445C = target: T1, ASIC3 G445C (Rattus norvegicus, UniProt O35240, G445C); test: whole-cell patch clamp, block of pH 6-evoked currents; type: cell-based
# T1 construct: rASIC3 G445C co-expressed with wildtype ASIC3 at a 10:1 ratio in CHO-K1 cells; with wildtype ASIC3 (heteromultimeric channels)
# T1 sequence (O35240 1-533 G445C): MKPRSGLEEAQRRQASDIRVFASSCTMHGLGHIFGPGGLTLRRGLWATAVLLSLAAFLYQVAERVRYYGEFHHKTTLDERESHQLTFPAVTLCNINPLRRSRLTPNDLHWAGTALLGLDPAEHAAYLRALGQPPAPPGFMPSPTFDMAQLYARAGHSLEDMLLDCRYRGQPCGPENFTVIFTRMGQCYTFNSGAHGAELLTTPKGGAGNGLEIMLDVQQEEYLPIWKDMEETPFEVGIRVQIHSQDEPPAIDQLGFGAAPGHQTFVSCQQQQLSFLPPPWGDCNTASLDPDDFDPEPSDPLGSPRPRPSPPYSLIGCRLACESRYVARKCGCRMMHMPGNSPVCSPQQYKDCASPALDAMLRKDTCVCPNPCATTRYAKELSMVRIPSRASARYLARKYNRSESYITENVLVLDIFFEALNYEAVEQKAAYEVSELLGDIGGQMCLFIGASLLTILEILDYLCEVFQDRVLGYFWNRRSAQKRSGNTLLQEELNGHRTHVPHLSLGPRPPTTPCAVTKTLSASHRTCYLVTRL
# Source text: whole-cell patch clamp, block of pH 6-evoked currents on ASIC3 G445C | G445C mutation partially blunted the inhibitory action of amiloride on ASIC3 currents when compared to wildtype ASIC3 channels
# [1] = target: T2, Acid-Sensing Ion Channel 3 (ASIC3) (Rattus norvegicus, UniProt O35240); test: as above; type: cell-based
# T2 construct: Rat ASIC3 in pMT3 vector, expressed in CHO-K1 cells
# T2 sequence (O35240 1-533): T1 sequence (O35240 1-533 G445C) with C445G
structure (smiles),measurement,setting,value
N=C(N)NC(=O)c1nc(Cl)c(N)nc1N [amiloride],IC50,ASIC3 G445C,17.3 µM
same,IC50,[1],18.6 µM
